PubChem BioAssay (NCI)
“And” between values parts separate entries of the source, which are not always exact repeats. Identical values can stand only once.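 96-well plates; 48 h exposure; 5 concentrations. Endpoints by linear interpolation between flanking doses. Not reached: highest tested concentration assigned. Here, GI50 denotes the concentration required for 50% inhibition of growth. TGI marks complete inhibition of growth.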

Experiments:
Experiment in all cases: NCI tumour cell line growth inhibition, 48 h
COLO 205 colon = test system: COLO 205 colon
UACC-257 melanoma = test system: UACC-257 melanoma
HCC-2998 colon = test system: HCC-2998 colon
MOLT-4 leukemia = test system: MOLT-4 leukemia
HS 578T breast = test system: HS 578T breast
EKVX NSCLC = test system: EKVX NSCLC
SF-539 CNS = test system: SF-539 CNS
NCI-H460 lung = test system: NCI-H460 lung
A498 renal = test system: A498 renal
OVCAR-8 ovarian = test system: OVCAR-8 ovarian

| SMILES | GI50 (COLO 205 colon) [nM] | TGI (COLO 205 colon) | GI50 (UACC-257 melanoma) [nM] | TGI (UACC-257 melanoma) | GI50 (HCC-2998 colon) [µM] | TGI (HCC-2998 colon) | GI50 (MOLT-4 leukemia) | TGI (MOLT-4 leukemia) | GI50 (HS 578T breast) [nM] | TGI (HS 578T breast) | GI50 (EKVX NSCLC) [nM] | TGI (EKVX NSCLC) | GI50 (SF-539 CNS) [nM] | TGI (SF-539 CNS) | GI50 (NCI-H460 lung) [nM] | TGI (NCI-H460 lung) | GI50 (A498 renal) [nM] | TGI (A498 renal) | GI50 (OVCAR-8 ovarian) [µM] | TGI (OVCAR-8 ovarian) |
| --- | --- | --- | --- | --- | --- | --- | --- | --- | --- | --- | --- | --- | --- | --- | --- | --- | --- | --- | --- | --- |
| Cc1cc2c(-c3nc4ccccn4c3NC34CC5CC(CC(C5)C3)C4)c(O)c(O)cc2c(O)c1-c1c(C)cc2c(-c3nc4ccccn4c3NC34CC5CC(CC(C5)C3)C4)c(O)c(O)cc2c1O | 626 | 4.77 µM | 1000 | > 25 µM | 1.13 | > 25 µM | 110 nM | 10.4 µM | 850 | 16.2 µM | 454 | > 25 µM | 671 | 2.98 µM | 90.3 | 2.1 µM | 817 | > 25 µM | 0.871 | > 25 µM |
| O=C1c2c(O)ccc(O)c2C(=O)c2c(NCCNCCO)ccc(NCCNCCO)c21 |  | 1.23 µM and 0.769 µM and 1.16 µM | 820 | 4.61 µM and 6.14 µM and 7.32 µM |  | 1.04 µM and 0.795 µM and 0.908 µM | < 10 nM and < 5 nM and 4.76 nM | 0.235 µM and 0.339 µM |  | 0.296 µM and 1.88 µM and 1.03 µM | 564 | 3.68 µM and 4.55 µM and 1.28 µM |  | 0.0705 µM and 0.699 µM and 0.244 µM |  | 0.274 µM and 0.332 µM and 0.484 µM | 72.1 | 0.555 µM and 0.588 µM and 0.59 µM |  | 0.388 µM and 0.414 µM and 0.665 µM |
| COc1ccc(-c2nn(-c3cccc(Cl)c3)cc2-c2cc(-c3cccs3)no2)cc1 | 3210 | 7.24 µM | 3070 | 15.1 µM | 3.47 | 14.6 µM | 2960 nM | 19.5 µM | 4420 | 45.5 µM | 2070 | 13.5 µM | 7470 | 36.6 µM | 3420 | 16.6 µM | 1810 | 14.6 µM | 4.04 | 36 µM |
| COc1ccc(-c2cn(-c3cc(OC)c(OC)c(OC)c3)c(=O)n2-c2ccccc2)cc1 | > 100000 | > 100 µM | > 100000 | > 100 µM | > 100 | > 100 µM | > 100000 nM | > 100 µM | 53200 | > 100 µM | > 100000 | > 100 µM | > 100000 | > 100 µM | > 100000 | > 100 µM | > 100000 | > 100 µM | > 100 | > 100 µM |
| NC(=O)c1c(NC(=O)c2cccc(C(F)(F)F)c2)sc2c1CCC(=O)C2 | 437 | 1.8 µM | 2170 | 6.38 µM | 2.59 | > 76.9 µM | 404 nM | > 20.2 µM | 545 | > 100 µM | 2120 | > 100 µM | 328 | 1.23 µM | 512 | > 100 µM | 3330 | > 100 µM | 0.519 | > 100 µM |
| COC(=O)C1=C(C(=O)OC)C(C(=O)OC)C(C(=O)OC)C(C(=O)OC)(C(=O)OC)C(C(=O)OC)=C1C(=O)OC (stereo not drawn) |  | 16.8 µM |  | 27 µM |  | 31 µM |  | 6.71 µM |  | 75.3 µM |  | 35.4 µM |  | 36.7 µM |  | 37.4 µM |  | 29.3 µM |  | 25.2 µM |
| CC(=O)OC1Oc2cc(C)c(C)cc2-c2oc(=O)c(-c3ccccc3)cc21 (stereo not drawn) | 385 | 3.64 µM | 537 | 39 µM | 0.971 | > 30.8 µM | 355 nM |  | 244 | 1.42 µM | 685 | > 100 µM | 232 | 0.762 µM | 338 | 14.2 µM | 271 | 3.11 µM | 0.545 | > 84.5 µM |
| CCn1c(-c2nonc2N)nc2c(C#CC(C)(C)O)ncc(OC[C@@H]3CCCN3)c21 | 2940 | 7.62 µM | > 25000 | > 25 µM | 3.12 | > 25 µM | 3010 nM | > 25 µM | 1720 | > 19.5 µM | 11700 | > 25 µM | 1520 | 15.8 µM | 4510 | > 22.6 µM | 136 | 1.97 µM | 6.4 | > 25 µM |
| O=C(Nc1nc2ccc(F)cc2s1)c1cccnc1Nc1ccc(Cl)cc1Cl | 1720 | 3.81 µM | 753 | 7.73 µM | 4.09 | 18.3 µM | 2350 nM | 17.3 µM | 2920 | 19.7 µM | 2020 | 16 µM | 4150 | 15.3 µM | 2670 | 12.4 µM | 2130 | 6.84 µM | 3.43 | 22.8 µM |
| N=C(N)SCC(=O)O |  | > 100 µM |  | > 100 µM |  | > 100 µM |  | > 100 µM |  | > 100 µM |  | > 100 µM |  | > 100 µM |  | > 100 µM |  | > 100 µM |  | > 100 µM |
| COc1ccc(CNC(=O)c2ccc(-c3cc(-c4nnc(C)o4)ccc3C)cc2)cc1 | > 22900 | > 25 µM | 12800 | > 25 µM | > 25 | > 25 µM | 15600 nM | > 25 µM | > 25000 | > 25 µM | 7680 | > 25 µM | > 25000 | > 25 µM | > 25000 | > 25 µM | 8220 | > 25 µM | > 25 | > 25 µM |
| C/C(N=NC(=S)N1CCCCCC1)=C1\C=CC=CN1O |  | 55.2 µM |  | 10.9 µM |  | > 100 µM |  | 20.1 µM |  | > 100 µM |  | > 94.4 µM |  | 48.2 µM |  | 31.3 µM |  | 92.1 µM |  | > 49.4 µM |
| C=C[C@@]1(C)CC(=O)[C@]2(O)[C@@]3(C)[C@@H](O)CCC(C)(C)[C@@H]3[C@H](O)[C@@H](OC(C)=O)[C@@]2(C)O1 |  | > 100 µM |  | > 100 µM |  | > 100 µM |  | > 100 µM |  | > 100 µM |  | > 100 µM |  | > 100 µM |  | > 100 µM |  | > 100 µM |  | > 100 µM |
| COc1cc(/C=C2\C(=O)Nc3ccc(Br)cc32)cc(OC)c1OC | 8180 | > 100 µM | > 50700 | > 100 µM | 57.4 | > 100 µM | 8510 nM | > 100 µM | 2940 | > 78.7 µM | 14300 | > 100 µM | 26700 | > 100 µM | 8760 | > 100 µM | 13700 | > 55.8 µM | 34.3 | > 100 µM |
| COc1ccc(-c2nn(-c3cccc(Cl)c3)cc2/C=C2\C(=N)N(c3ccccc3)N=C2N)cc1 | 1830 | 3.92 µM | 2140 | 33.6 µM | 0.627 | 4.42 µM | 511 nM | 22.3 µM | 19600 | > 100 µM | 1500 | 60.5 µM | 617 | 3.52 µM | 445 | 7.4 µM | 11200 | > 78.8 µM | 1.12 | > 100 µM |
| CC(=O)Nc1ccc2c(c1)CN1C(=O)c3ccccc3C1=N2 | > 100000 | > 100 µM | > 100000 | > 100 µM | > 100 | > 100 µM | > 100000 nM | > 100 µM | > 100000 | > 100 µM | > 100000 | > 100 µM | > 100000 | > 100 µM | > 100000 | > 100 µM | > 100000 | > 100 µM | > 100 | > 100 µM |
